In data set [1] the test system is anesthetized normotensive rats. Briefly: Antihypertensive activity on anesthetized normotensive rats. Format: in vivo. As to conditions: dose which lowers the mean blood pressure by 15 mmHg, i.v. (femoral vein); urethane anesthetized normotensive male Wistar rats. As to the method:
The antihypertensive activities of the compounds on anesthetized normotensive rats were tested according to the method of H. Sogabe.^(1) Male Wistar rats weighing 200-300 g were anesthetized with urethane (1.2 g/kg. i.v.). Blood pressure was measured by a transducer (Nihon Koden RT-5) connected the catheter inserted into the femoral artery. The test compounds in physiological saline (0.1 ml/100 g. B.W.) were injected via the femoral vein. The antihypertensive activity was assessed by comparing with MBP15 (dose which lowers the mean blood pressure by 15 mmHg, mg/kg i.v.).
(1) Hirobumi Sogabe "Jikken Kouketsuatsushou nyuumon" p227 (Eikoudo 1968).

A further data set has as its system Guinea-pig taenia caecum. Briefly: Ca++-antagonistic activity (isolated guinea-pig taenia caecum). As to conditions: Cavia porcellus, 0.05 h; Ca++-induced contraction of taenia caecum, Ca++-free Krebs Ringer; pretreatment with compound 3 minutes before; read-out: PA2 value (converted). Here is the method:
Ca^++ -Antagonistic activity. Experiments are carried out according to the method of M. Ferrari (Arch. Intern. Pharmacoadyn. 174, 223 (1968) Guinea-pig taenia caecum is isolated and suspended in a bath which is filled with Ca^++ -free Krebs Ringer solution for 30 minutes. In this condition, taenia caecum is contracted by elevating Ca^++ -ion concentration of Krebs Ringer and obtained a dose-response curve against Ca^++ -ion. Pretreatment with the compound of this invention before 3 minutes, and obtained a dose-response curve under the existence of the compound of this invention.
From these two dose-response curves, PA2 value is calculated and PA2 is expressed as index of activities. (Table 1)

Data set [2] can be described thus: Acute toxicity in mice per os. As to conditions: mouse, in vivo, po. The source says:
The acute toxicity of the compounds of this invention in mice per os is as follows. (Table 4)

For data set [3], the system named is isolated guinea-pig heart. Briefly: Coronary artery dilating activity (Rangendorf method, isolated guinea-pig heart). As to conditions: coronary blood flow examined for 2 minutes. From the text:
The coronary artery dilating activity of the compounds is estimated by Rangendorf method (Pfugers. Arch. Ges. Physiol. 62, 291 (1895)) using the isolated guinea-pig heart.

The values below come from patent US4780462A, “Antihypertensive 1,5-benzothiazepine derivatives and compositions thereof” (Kotokuki Seiya Kau Co., Ltd., priority 1986, dated 1988).

In the case of `O=C(CCNCCSc1ccc([N+](=O)[O-])cc1)N1CCCSc2ccccc21` [Compound 5, 5-[3-(2-(4-nitrophenylthio)ethylamino)propionyl]-2,3,4,5-tetrahydro-1,5-benzothiazepine·fumarate], the “Antihypertensive act. (M.B.P.15)” value in data set [1] stood at 2.0 µg. In the data set with Guinea-pig taenia caecum, the Kb was 97.7 nM.

Consider `O=C(CCNCCOc1ccc(Cl)cc1Cl)N1CCCSc2ccccc21` [Compound 13, 5-[3-(2-(2,4-dichlorophenoxy)ethylamino)propionyl]-2,3,4,5-tetrahydro-1,5-benzothiazepine·fumarate], for which, in data set [1], the “Antihypertensive act. (M.B.P.15)” value came to 3.5 µg. In addition, the Kb in the data set with Guinea-pig taenia caecum was 126 nM.

For the compound `COc1cccc(OC)c1OCCNCCC(=O)N1CCCSc2ccccc21` [Compound 1, 5-[3-(2-(2-,6-dimethoxyphenoxy)ethylamino)-propionyl]-2,3,4,5-tetrahydro-1,5-benzothiazepine·fumarate], the Kb in the data set on Guinea-pig taenia caecum was 813 nM.

In general, LD50 refers to the dose expected to kill half of the subjects tested. A low value points to greater toxicity. With `CC(C)c1cccc(C(C)C)c1OCCNCCC(=O)N1CCCSc2ccccc21` [Compound 3, 5-[3-(2-(2,6-diisopropylphenoxy)ethylamino)-propionyl]-2,3,4,5-tetrahydro-1,5-benzothiazepine·fumarate], in data set [2], the LD50 worked out at 1500 mg/kg. The “Antihypertensive act. (M.B.P.15)” value in data set [1] was determined as 1.35 µg.

For `COc1ccc(OCCNCCC(=O)N2CCCSc3ccccc32)cc1` [Compound 8, 5-[3-(2-(4-methoxyphenoxy)ethylamino)propionyl]-2,3,4,5-tetrahydro-1,5-benzothiazepine·fumarate], the Kb with Guinea-pig taenia caecum was 603 nM.

In the case of `O=C(CCNCCOc1cccc([N+](=O)[O-])c1)N1CCCSc2ccccc21` [Compound 7, 5-[3-(2-(3-nitrophenoxy)ethylamino)propionyl]-2,3,4,5-tetrahydro-1,5-benzothiazepine·fumarate], the “Antihypertensive act. (M.B.P.15)” value in data set [1] worked out at 4.2 µg. The Kb with Guinea-pig taenia caecum is 245 nM.

Consider `Nc1ccccc1OCCNCCC(=O)N1CCCSc2ccccc21` [Compound 15, 5-[3-(2-(2-aminophenoxy)ethylamino)propionyl]-2,3,4,5-tetrahydro-1,5-benzothiazepine·fumarate], for which, in data set [2], the 50% lethal dose (LD50) worked out at 374 mg/kg. The “maximum increased blood flow” value in data set [3] (30 μg/heart) came out at 2.0 mL.

With `O=C(CCNCCOc1ccc([N+](=O)[O-])cc1)N1CCCSc2ccccc21` [Compound 16, 5-[3-(2-(4-nitrophenoxy)ethylamino)propionyl]-2,3,4,5-tetrahydro-1,5-benzothiazepine·fumarate], the “maximum increased blood flow” value in data set [3] (10 μg/heart) was 4.2 mL.

Take `Cc1cc(C)c(OCCNCCC(=O)N2CCCSc3ccccc32)c(C)c1` [Compound 12, 5-[3-(2-(2,4,6-trimethylphenoxy)ethylamino)propionyl]-2,3,4,5-tetrahydro-1,5-benzothiazepine·fumarate]: the “maximum increased blood flow” value stood at 11.3 mL in data set [3] (10 μg/heart) and 18.3 mL in data set [3] (30 μg/heart). Further, the Kb in the data set with Guinea-pig taenia caecum is 55 nM.

With `Cc1cccc(C)c1SCCNCCC(=O)N1CCCSc2ccccc21` [Compound 17, 5-[3-(2-(2,6-dimethylphenylthio)ethylamino)propionyl]-2,3,4,5-tetrahydro-1,5-benzothiazepine·fumarate], the “Antihypertensive act. (M.B.P.15)” value in data set [1] was determined as 9.3 µg.

With `Cc1cccc(OCCNCCC(=O)N2CCCSc3ccccc32)c1` [Compound 11, 5-[3-(2-(3-methylphenoxy)ethylamino)propionyl]-2,3,4,5-tetrahydro-1,5-benzothiazepine·fumarate], the “Antihypertensive act. (M.B.P.15)” value in data set [1] was determined as 34.7 µg. Also, the “maximum increased blood flow” value was 7.7 mL in data set [3] (3 μg/heart) and 16.5 mL in data set [3] (30 μg/heart).

Regarding `Nc1cccc(OCCNCCC(=O)N2CCCSc3ccccc32)c1` [Compound 6, 5-[3-(2-(3-aminophenoxy)ethylamino)propionyl]-2,3,4,5-tetrahydro-1,5-benzothiazepine·fumarate], the “maximum increased blood flow” value is 4.6 mL in data set [3] (10 μg/heart) and 6.0 mL in data set [3] (30 μg/heart).

Consider `Cc1cccc(C)c1OCCNCCC(=O)N1CCCSc2ccccc21` [Compound 4, 5-[3-(2-(2,6-dimethylphenoxy)ethylamino)propionyl]-2,3,4,5-tetrahydro-1,5-benzothiazepine·fumarate], for which the “maximum increased blood flow” value in data set [3] (10 μg/heart) came to 7.2 mL; in data set [3] (30 μg/heart), 19.2 mL. In addition, the Kb with Guinea-pig taenia caecum was 102 nM.
